Experimental data as given in US10894069B2, “Topical antiviral formulations and methods of using the same” (priority 2015, dated 2021).

Experiments:
[1] = cited from earlier work
[2] = cited from earlier work; remark: listed apart in the source
Herpes simplex = experiment: Informal patient trials, topical treatment of Herpes simplex of the lips / herpes labialis; format: in vivo, human; conditions: person; for benefit of prior therapy, orally: oral
herpes genitalias = experiment: Patient case, topical treatment of herpes genitalis; format: in vivo, human; conditions: person, high dose
Description: Operating with informed consent, individuals treated with the topical composition and the methods of the present invention for treating herpes virus infection, more particularly Herpes simplex and herpes zoster or shingles, as described in Examples 3 to 8.
A person presented with a decade or longer history of herpes genitalias recurring on the epithelium of the penis, more specifically the shaft. […] The patient was then treated with Composition B of the cannabinoid rich topical of Example 1 one to two times a day.

Structure (SMILES): Nc1nc2c(ncn2COCCO)c(=O)[nH]1 [acyclovir]
- concentrations in the skin following topical application versus following oral administration [1]: 2-3 times lower
- solubility in water [2]: poor water-solubility

Structure (SMILES): CCCCCc1cc(O)c2c(c1)OC(C)(C)[C@@H]1CCC(C)=C[C@@H]21 [THC, delta-9-tetrahydrocannabinol]
- solubility in organic solvents ([2]; specifically lipids and alcohols): good solubility in most organic solvents

Structure (SMILES): Nc1nc2c(ncn2COCCO)c(=O)[nH]1 [Zovirax, acyclovir]
- benefit of prior therapy, orally (Herpes simplex): slight benefit
- benefit of prior therapy, topically (Herpes simplex; topical): without benefit

Structure (SMILES): CC(C)[C@H](N)C(=O)OCCOCn1cnc2c(=O)[nH]c(N)nc21 [Valtrex, valacyclovir]
- satisfaction with prior therapy (Herpes simplex; high doses): without total satisfaction
- benefit of prior therapy, orally (Herpes simplex): slight benefit
- response of severe pain with burning and tingling to prior therapy (herpes genitalias): had not responded
